The values that follow come from patent EP0434364A2, “Benzodiazepine analogs for treating panic syndrome and for directly inducing analgesia” (MERCK & CO. INC., priority 1989, dated 1991).

Where two headings read alike, the source gives them in different places. Ends that are not written are not given here.

Test [1] addresses T1, CCK Receptor (Pancreas) (Rattus norvegicus, UniProt P30551).
T1 construct: The whole pancreas was dissected free of fat tissue and was homogenized; from tissue; host or cells: rat whole pancreas membranes
T1 sequence (P30551 1-444): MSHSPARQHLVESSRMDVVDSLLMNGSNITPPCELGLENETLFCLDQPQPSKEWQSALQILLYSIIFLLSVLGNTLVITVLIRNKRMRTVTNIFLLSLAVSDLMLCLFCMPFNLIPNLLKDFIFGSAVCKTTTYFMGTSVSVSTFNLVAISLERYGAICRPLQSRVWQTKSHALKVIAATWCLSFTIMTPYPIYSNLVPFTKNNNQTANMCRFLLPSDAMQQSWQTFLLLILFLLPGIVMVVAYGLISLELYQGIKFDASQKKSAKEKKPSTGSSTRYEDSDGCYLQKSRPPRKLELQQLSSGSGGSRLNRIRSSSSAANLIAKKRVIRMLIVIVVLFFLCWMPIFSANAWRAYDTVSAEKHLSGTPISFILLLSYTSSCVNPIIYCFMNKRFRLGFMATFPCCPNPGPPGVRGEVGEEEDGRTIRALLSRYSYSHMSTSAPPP
Briefly: CCK Receptor Binding (Pancreas), inhibition of 125I-CCK-33 binding. Set-up: species or system Sprague-Dawley rats. How it is done: CCK-33 was radiolabeled with ¹²⁵I-Bolton Hunter reagent (2000 Ci/mmole) as described by Sankara et al. (J. Biol. Chem. 254: 9349-9351, 1979). Receptor binding was performed according to Innis and Snyder (Proc. Natl. Acad. Sci. 77, 6917-6921, 1980) with the minor modification of adding the additional protease inhibitors, phenylmethane sulfonyl fluoride and o-phenanthroline.
Male Sprague-Dawley rats (200-350g) were sacrificed by decapitation. The whole pancreas was dissected free of fat tissue and was homogenized in 20 volumes of ice-cold 50 mM Tris HCI (pH 7.7 at 25°C) with a Brinkmann Polytron PT 10. The homogenates were centrifuged at 48,000 g for 10 min. Pellets were resuspended in Tris Buffer, centrifuged as above and resuspended in 200 volumes of binding assay buffer (50 mM Tris HCI, pH 7.7 at 25°C, 5 mM dithiothrietol, 0.1 mM bacitracin, 1.2 mM phenylmethane sulfonyl fluoride and 0.5 mM o-phenanthroline). […] All assays were run in duplicate or triplicate. The reaction mixtures were incubated at 37°C for 30 minutes and centrifuged in a Beckman Microfuge (4 minutes) immediately after adding 1 ml of ice-cold incubation buffer. The supernatant was aspirated and discarded, pellets were counted with a Beckman gamma 5000. For Scatchard analysis (Ann. N.Y. Acad. Sci. 51: 660, 1949), ¹²⁵I-CCK-33 was progressively diluted with increasing concentrations of CCK-33.

Test [2] concerns the target T2, Gastrin Receptor (Cavia porcellus, UniProt H0VZC5).
T2 construct: The washed guinea pig gastric glands prepared as above were resuspended; from tissue; host or cells: guinea pig gastric mucosal glands (intact glands after collagenase)
T2 sequence (H0VZC5 1-426): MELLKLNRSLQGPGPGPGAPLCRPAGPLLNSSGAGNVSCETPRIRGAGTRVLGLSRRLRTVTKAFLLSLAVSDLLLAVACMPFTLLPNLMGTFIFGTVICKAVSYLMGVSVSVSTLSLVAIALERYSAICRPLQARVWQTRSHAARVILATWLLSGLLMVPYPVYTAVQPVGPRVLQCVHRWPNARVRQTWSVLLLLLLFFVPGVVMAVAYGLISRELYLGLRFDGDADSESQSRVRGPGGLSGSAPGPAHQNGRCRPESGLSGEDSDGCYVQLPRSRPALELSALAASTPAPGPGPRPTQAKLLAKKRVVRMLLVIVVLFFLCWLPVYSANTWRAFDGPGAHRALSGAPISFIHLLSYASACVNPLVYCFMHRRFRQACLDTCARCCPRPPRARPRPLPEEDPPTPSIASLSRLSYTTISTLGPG
Briefly: Gastrin Receptor Binding in Guinea Pig Gastric Glands (125I-gastrin).

Test [3] relates to DBA2 mice. Briefly: Black/white exploration test (animal model of anxiety). The format is in vivo. As to conditions: for active dose range / difference in time spent in the black and white side / preference for rearing in the black side: mice; for active dose range: black/white exploration test. The source says: The black/white exploration test [Crawley et al. Pharmacology, Biochemistry and Behav. 13, 167 (1980)] is a simple animal model of anxiety. Rodents placed in a two compartment box which consists of a brightly lit, white painted side and a dimly lit, black painted side, display a marked preference for the black side of the apparatus. This behavior is caused by the aversive properties of the brightly lit, white painted section. Classical anxiolytic drugs [such as diazepam, see Crawley, supra] and novel anxiolytic drugs [such as 5HT₃ antagonists, see Jones et al. Br. J. Pharm. 93, 985 (1988)] decrease the preference of the animal for the black dimly lit side of the apparatus.
A. Naive male DBA2 mice (25-30) were housed on a reversed light/dark cycle and tested during the dark phase of the cycle under dim red light. The apparatus consisted of an open topped box (40cm long X 27 cm wide X 27 cm high) divided into a small area (2/5) and a large area (3/5) by a partition that extended 20 cm above the walls. There was a 7.5 X 7.5 cm opening in the partition at floor level. The small compartment was painted black and the large compartment white. The floor of each compartment was marked into 9 cm squares. The white compartment was illuminated by a 100 W tungsten bulb 17 cm above the box and the black compartment by a similarly placed 60 W red bulb.
Animals that had been injected with drug or vehicle were placed individually into the centre of the white area and their behavior observed during a 5 minute period by remote video recording. Four behavioral parameters were recorded every minute: the number of exploratory rears in the white and black sections, the number of line crossings in the black and white sections, the number of transitions between the two sections and the time spent in the black and white sections. Animals were tested in treatment groups of 8-10 and vehicle controls were run on each test day. Data were analysed by ANOVA and Dunnetts test.

In test [4] the test system is Sprague Dawley rats. In words: Exploratory/locomotor activity in automated activity cages (novel environment). In kind it is in vivo. How it is done:
B. The effects of CCK-8 and compound A on the exploratory behavior of the rat were examined in automated activity cages and by direct observation. It is known that exogenous CCK-8 decreases exploratory behavior in rats in a novel environment by accelerating the process of habituation. [See Crawley, Pharm. Biochem & Behav. 20, 23-27 (1984).]
Expt 1. Male Sprague Dawley rats were injected ([…].) with CCK-8 and immediately placed in automated activity cages. Activity was measured for 30 minutes past injection.
Expt 2. Male SD rats were injected (s.c.) with the CCK antagonist compound A (0.0001-10mg/kg) and immediately placed in the automated activity cages. […] As the anxiolytic drug chlordiazepoxide also increases spontaneous locomotor activity in rats in a novel environment [(McElroy et al. Psychopharm. 85: 224-226 (1985)] these findings are consistent with an anxiolytic action of Compound A useful in the treatment of panic disorder.

The subject of test [5] is rats. Briefly: Exploration in a novel environment by direct observation (perspex cage). The format is in vivo. To be noted: 0.1 mg/kg, 15 minute period 15 minutes after treatment. How it is done: Expt 3. In order to assess further the effect of Compound A on exploration in a novel environment, the motoric hehaviors of rats placed in a perspex cage was recorded by direct observation for a 15 minute period 15 minutes after treatment with Compound A.
Experimenters (unaware of the treatments the animals had received) recorded the frequency and duration of rearing, sniffing, grooming and cage crossing using a keypad interfaced to a BBC microcomputer.

Regarding `CN1C(=O)C(NC(=O)c2cc3ccccc3[nH]2)N=C(c2ccncc2)c2ccccc21` (racemic) [Example 17, 1,3-Dihydro-3(RS)-(2-indolecarbonylamino)-1-methyl-5-(4-pyridyl)-2H-1,4-benzodiazepin-2-one], the 50% inhibitory concentration (IC50) amounted to 0.0068 µM in test [1] and 0.66 µM in test [2].

`CN1C(=O)C(NC(=O)c2cc3ccccc3[nH]2)N=C(c2ccccn2)c2ccccc21` (racemic) [Example 24, (RS)-N-(2,3-Dihydro-1-methyl-2-oxo-5-(2-pyridyl)-1H-1,4-benzodiazepin-3-yl)-1H-indole-2-carboxamide]: the IC50 stood at 0.00037 µM in test [1] and 0.16 µM in test [2].

As for `Cc1cccc(NC(=O)NC2N=C(c3ccccn3)c3ccccc3N(CC(C)C)C2=O)c1` (racemic) [Example 25, (RS)-N-(2,3-Dihydro-1-(2-methylpropyl)-2-oxo-5-(2-pyridyl)-1H-1,4-benzodiazepin-3-yl)-N′-(3-methyl-phenyl)-urea], the results for the IC50 in test [1] and in test [2] were 0.49 µM and 0.00067 µM, respectively.

On to `CN1C(=O)C(NC(=O)Nc2ccc3c(c2)CCC3)N=C(c2ccccc2)c2ccccc21` (racemic) [Example 26, (RS)-N-(2,3-dihydro-1-methyl-2-oxo-5-phenyl-1H-1,4-benzodiazepin-3-yl)-N′-(5-indanyl)urea], for which the IC50 in test [1] came to 0.075 µM; in test [2] (guinea pig gastric glands, 125I-gastrin, 25°C 30 minutes, read-out: IC50(µM) 125I-Gastrin Gastric Glands) it was 0.0019 µM.

Consider `Cc1cccc(NC(=O)N[C@@H]2N=C(c3ccccc3)c3ccccc3N(C)C2=O)c1` [Example 5, (R)-N-(2,3-Dihydro-1-methyl-2-oxo-5-phenyl-1H-1,4-benzodiazepin-3-yl)-N′-(3-methylphenyl)-urea], for which the IC50 in test [1] (rat pancreas membranes, 125I-CCK-33, 37°C 30 minutes, read-out: IC50(µM) 125I-CCK Pancreas) stood at 0.28 µM. This compound had an active dose range in test [3] of 0.005 to 0.05 µg/kg. In test [3] (dose of 0.005 ug/kg), the “difference in time spent in the black and white side” value is “decreased”. In addition, the “preference for rearing in the black side” value in test [3] (dose of 0.05 ug/kg) is “abolished”.

Take `Cc1cccc(NC(=O)N[C@H]2N=C(c3ccccc3)c3ccccc3N(C)C2=O)c1` [Example 11, (S)-N-(2,3-Dihydro-1-methyl-2-oxo-5-phenyl-1H-1,4-benzodiazepin-3-yl)-N′-(3-methylphonyl)-urea]: the concentration for half-maximal inhibition (IC50) in test [1] is 0.0041 µM; in test [2], 0.092 µM.

For `CN1C(=O)[C@@H](NC(=O)c2cc3ccccc3[nH]2)N=C(c2ccccc2)c2ccccc21` [Example 16, 3(S)-(-)-1,3-Dihydro-3-(2-indolecarbonylamino)-1-methyl-5-phenyl-2H-1,4-benzodiazepin-2-one], in test [3] (mice, 0.5, 5.0 and 500 ug/kg), the “preference for locomotion (line crossings) in the black side” value was “abolished”. For the same compound, the “difference in time spent in the black and white side” value in test [3] (5.0 and 500 ug/kg) is on record as “abolished”. The same compound yielded an active dose range in test [3] of 0.05 to 5.0 µg/kg. For the same compound, the “preference for rearing in the black side” value in test [3] (doses of 0.05, 0.5, 5.0 and 500 ug/kg) is “significantly decreased”. In addition, the “habituation and period of exploratory activity” value in test [4] (s.c., 0.0001-10mg/kg, F(6,124) = 2.54, p<0.05) is “delayed habituation and prolonged the period of exploratory activity”. Also, the levels of activity entry in test [4] (s.c., 0.1 mg/kg, at 25 minutes, p<0.01) was “significantly above controls”. Moreover, the “activity, higher and lower doses” value in test [4] (s.c., doses higher and lower than 0.1 mg/kg, at 25 minutes, bell-shaped dose response curve) is recorded as “no significant effect”. Moreover, in test [5] (P<0.01), the Sniffing entry is “significantly increased” and the rearing entry is recorded as “significantly increased”. Moreover, in test [5] (P<0.05), the cage crossing result is reported as “significantly increased”.

As for `CN1C(=O)[C@H](NC(=O)Nc2cc3c(cn2)[nH]c2ccccc23)N=C(c2ccccc2)c2ccccc21` [Example 22], the IC50 in test [1] stood at 0.0044 µM; in test [2], 1.3 µM.

Compound `CN1C(=O)[C@@H](NC(=O)c2cc3cc(O)ccc3[nH]2)N=C(c2ccccc2)c2ccccc21` [Example 27, 1,3-Dihydro-3-(5-hydroxyindole-2-carbonylamino)-1-methyl-5-phenyl-2H-1,4-benzodiapin-2-one] registered a 50% inhibitory concentration (IC50) in test [1] of 0.0033 µM.

As for “CCK-8 (DYMGWMDF; ends and bridges not checked; UniProt P06307 96-103, looked up) [reference compound]”, the locomotor activity result in test [4] (i.p., 0.5-16µg/kg, 30 minutes post injection, F(6,87) = 3.21 (p<0.01)) is “dose-dependently decreased”.

As a reminder, the IC50 is the point on the concentration scale where inhibition reaches its midpoint.
